Test results as given in patent US6653309B1, “Inhibitors of IMPDH enzyme technical field of the invention” (Vertex Pharmaceuticals Incorporated, priority 1999, dated 2003).
pKi: −log10 of the molar value.

Each molecule was assayed against IMPDH human type II (Homo sapiens, UniProt P12268) (assay: IMPDH Activity Inhibition Assay). Conditions: spectrophotometric NADH formation at 340 nm, 37° C., tight-binding equation of Henderson.
Format: biochemical
Experimental: IMP dehydrogenase activity was assayed following an adaptation of the method first reported by Magasanik. [B. Magasanik et al., J. Biod. Chem., 226, p. 339 (1957), the disclosure of which is herein incorporated by reference]. Enzyme activity was measured spectrophotometrically, by monitoring the increase in absorbance at 340 nm due to the formation of NADH (ε340 is 6220 M^−1 cm^−1). The reaction mixture contained 0.1 M Tris pH 8.0, 0.1 M KCl, 3 mM EDTA, 2 mM DTT, […] and enzyme (IMPDH human type II) at a concentration of 15 to 50 nM. This solution is incubated at 37° C. for 10 minutes. The reaction is started by adding NAD to a final concentration of […] and the initial rate is measured by following the linear increase in absorbance at 340 nm for 10 minutes. For reading in a standard spectrophotometer (path length 1 cm) the final volume in the cuvette is 1.0 ml. The assay has also been adapted to a 96 well microtiter plate format; in this case the concentrations of all the reagents remain the same and the final volume is decreased to 200 μl.
For the analysis of inhibitors, the compound in question is dissolved in DMSO to a final concentration of 20 mM and added to the initial assay mixture for preincubation with the enzyme at a final volume of 2-5% (v/v). The reaction is started by the addition of NAD, and the initial rates measured as above. Ki determinations are made by measuring the initial, velocities in the presence of varying amounts of inhibitor and fitting the data using the tight-binding equation of Henderson (Henderson, P. J. F. (1972) Biochem. J. 127, 321].
In the case of `CSc1ccc(NC(=O)c2cc3ccccc3cc2O)cc1` [Compound 175], the pKi was > 5.00.
With `COc1ccc(C(C)(C)C)cc1NC(=O)c1cc2ccccc2cc1O` [Compound 177] the pKi was 4.70 to 5.00.
With `COc1ccc(C)cc1NC(=O)c1cc2ccccc2cc1O` [Compound 178] the pKi was > 5.00.
Work on `COc1ccc(OC)c(NC(=O)c2cc3ccccc3cc2O)c1` [Compound 179] yielded a pKi of 4.70 to 5.00.
In the case of `COc1ccc(C(F)(F)F)cc1NC(=O)c1cc2ccccc2cc1O` [Compound 180], the pKi was 4.70 to 5.00.
With `COc1cc(Cl)c(C)cc1NC(=O)c1cc2ccccc2cc1O` [Compound 181] the pKi was > 5.00.
In the case of `O=C(Nc1ccccc1Oc1ccccc1)c1cc2ccccc2cc1O` [Compound 183], the pKi was > 5.00.
`COc1cccc(NC(=O)c2cc3ccccc3cc2O)c1OC` [Compound 184] showed a pKi of 4.70 to 5.00.
`O=C(Nc1ccc(Oc2ccccc2)cc1)c1cc2ccccc2cc1O` [Compound 185] was tested, and the pKi was > 5.00.
`COc1ccc(NC(=O)c2cc3ccccc3cc2O)c(OC)c1` [Compound 186] gave a pKi of 4.70 to 5.00.
For `COc1ccc(NC(=O)c2cc3ccccc3cc2O)cc1OC` [Compound 187], the pKi was 4.70 to 5.00.
Molecule `COc1cc(NC(=O)c2cc3ccccc3cc2O)cc(OC)c1` [Compound 188] has a pKi of 4.70 to 5.00.
`O=C(Nc1ccccc1O)c1cc2ccccc2cc1O` [Compound 190] was tested, and the pKi was < 4.70.
For `COc1ccc(C)cc1NC(=O)c1ccc2ccccc2c1O` [Compound 191], the pKi was < 4.70.
In the case of `O=C(Nc1ccccc1O)c1ccc2ccccc2c1O` [Compound 192], the pKi was < 4.70.
Molecule `O=C(Nc1ccccc1Oc1ccccc1)c1ccc2ccccc2c1O` [Compound 193] has a pKi of 4.70 to 5.00.
In the case of `COc1ccc(C)cc1NC(=O)c1ccccc1OC` [Compound 194], the pKi was < 4.70.
In the case of `COc1ccccc1C(=O)Nc1ccccc1O` [Compound 195], the pKi was 4.70 to 5.00.
Work on `COc1ccccc1C(=O)Nc1ccccc1Oc1ccccc1` [Compound 196] yielded a pKi of 4.70 to 5.00.
For `COc1ccccc1NC(=O)c1ccc(C)cc1O` [Compound 197], the pKi was < 4.70.
`COc1ccc(C)cc1NC(=O)c1ccc(C)cc1O` [Compound 198] was tested, and the pKi was < 4.70.
In the case of `Cc1ccc(C(=O)Nc2ccccc2O)c(O)c1` [Compound 199], the pKi was < 4.70.
In the case of `Cc1ccc(C(=O)Nc2ccccc2Oc2ccccc2)c(O)c1` [Compound 200], the pKi was 4.70 to 5.00.
For `COc1ccccc1NC(=O)c1cc(Br)ccc1O` [Compound 201], the pKi was 4.70 to 5.00.
For `COc1ccc(C)cc1NC(=O)c1cc(Br)ccc1O` [Compound 202], the pKi was < 4.70.
In the case of `O=C(Nc1ccccc1O)c1cc(Br)ccc1O` [Compound 203], the pKi was < 4.70.
For `O=C(Nc1ccccc1Oc1ccccc1)c1cc(Br)ccc1O` [Compound 204], the pKi was < 4.70.
In the case of `O=[N+]([O-])c1cccc(S(=O)(=O)Nc2ccc(-c3cnco3)cc2)c1` [Compound 300], the pKi was 4.70 to 5.00.
Work on `O=S(=O)(Nc1ccc(-c2cnco2)cc1)c1ccccc1` [Compound 301] yielded a pKi of 4.70 to 5.00.
With `COc1ccccc1NS(=O)(=O)c1ccc2ccccc2c1` [Compound 302] the pKi was 4.70 to 5.00.
With `O=C(Nc1ccc(F)cc1)Sc1ccccc1O` [Compound 303] the pKi was < 4.70.
`O=C(Nc1cccnc1)c1cc2ccccc2cc1O` [Compound 304] was tested, and the pKi was < 4.70.
For `COc1cc(Cl)ccc1NC(=O)Sc1ccccc1O` [Compound 305], the pKi was > 5.00.
In the case of `COc1ccc(C)cc1NC(=O)Sc1ccccc1O` [Compound 306], the pKi was 4.70 to 5.00.
`COc1ccc(OC)c(S(=O)(=O)Nc2cccc([N+](=O)[O-])c2)c1` [Compound 307] gave a pKi of 4.70 to 5.00.
Molecule `COc1ccc(OC)c(S(=O)(=O)Nc2ccc([N+](=O)[O-])cc2)c1` [Compound 308] has a pKi of 4.70 to 5.00.
For `COc1ccc(OC)c(S(=O)(=O)Nc2cccc(C#N)c2)c1` [Compound 309], the pKi was 4.70 to 5.00.
In the case of `COc1ccc(OC)c(S(=O)(=O)Nc2ccc(C#N)cc2)c1` [Compound 310], the pKi was 4.70 to 5.00.
In the case of `COc1cccc(OC)c1S(=O)(=O)Nc1ccc(C(C)(C)C)cc1` [Compound 311], the pKi was 4.70 to 5.00.
`COc1ccc(OC)c(S(=O)(=O)Nc2ccccc2C#N)c1` [Compound 312] showed a pKi of 4.70 to 5.00.
Molecule `COc1ccc(OC)c(S(=O)(=O)Nc2cccc(Br)c2)c1` [Compound 313] has a pKi of 4.70 to 5.00.
Work on `COc1ccc(OC)c(S(=O)(=O)NCc2c(F)cccc2Cl)c1` [Compound 314] yielded a pKi of 4.70 to 5.00.
Molecule `COc1ccc(OC)c(S(=O)(=O)Nc2ccccc2Cl)c1` [Compound 315] has a pKi of 4.70 to 5.00.
In the case of `COc1ccc(OC)c(S(=O)(=O)Nc2ccc(-c3ncon3)cc2)c1` [Compound 316], the pKi was 4.70 to 5.00.
With `COc1ccc(OC)c(S(=O)(=O)Nc2ccccc2[N+](=O)[O-])c1` [Compound 317] the pKi was 4.70 to 5.00.
In the case of `COc1ccc(Br)cc1S(=O)(=O)Oc1cc2ccccc2cc1N` [Compound 318], the pKi was 4.70 to 5.00.
Molecule `COc1ccc(Br)cc1S(=O)(=O)Nc1cc2ccccc2cc1O` [Compound 319] has a pKi of 4.70 to 5.00.
For `COc1ccc(OC)c(S(=O)(=O)Nc2cccc(Cl)c2)c1` [Compound 320], the pKi was 4.70 to 5.00.
With `COc1ccccc1NS(=O)(=O)c1cc(Cl)cc(Cl)c1O` [Compound 321] the pKi was 4.70 to 5.00.
Work on `COc1ccccc1NS(=O)(=O)c1ccccc1O` [Compound 322] yielded a pKi of 4.70 to 5.00.
With `COc1ccc(Br)cc1S(=O)(=O)Nc1ccccc1O` [Compound 323] the pKi was 4.70 to 5.00.
Work on `COc1ccccc1S(=O)(=O)Nc1ccccc1O` [Compound 324] yielded a pKi of 4.70 to 5.00.
For `COc1cc(NC(=O)Cc2cccc(CNC(=O)O[C@H]3CCOC3)c2)ccc1-c1cnco1` [Compound 325], the pKi was > 5.00.
In the case of `COc1cc(NC(=O)Oc2cccc(CNC(=O)O[C@H]3CCOC3)c2)ccc1-c1cnco1` [Compound 326], the pKi was > 5.00.
